Experimental data: patent publication US12303509B2, “Compounds for the treatment of BRAF-associated diseases and disorders” (Pfizer Inc., priority 2020, dated 2025)
Structures can show the parent of a compound that is named as a salt. Where two headings read alike, the source gives them in different places. Each block holds one compound with its values, some of them ahead of it.

Experiments:
[1] = molecular target: full-length FLAG-tagged B-Raf(V600E) (Homo sapiens (Human), UniProt P15056, V600E); test: BRAF V600E enzyme assay (TR-FRET competitive displacement); type: binding
Procedure, shortened: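 TR-FRET tracer competition: compound (top dose 10 μM, 3-fold, 11 points) incubated 60 min at ambient temperature with FLAG-tagged full-length B-Raf(V600E) (5 nM), Eu anti-FLAG cryptate (0.5 nM) and tracer (50 nM), pH 7.4 HEPES/MgCl2 buffer. 665/615 ratio converted to percent of control; IC50 where fitted curve crosses 50 POC.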

P-gp (MDR1) = P-gp (MDR1) (Homo sapiens (Human), UniProt P08183); test: MDR1 LLC-PK1 permeability assay: efflux ratio; type: in vitro ADME; settings: pig
From the text: (§1) Final organic concentration in the assay was 1%.

A375 cells = test: Cellular phospho-ERK inhibition assay in A375 cells; type: cell-based; settings: Homo sapiens, A-375, A375 cells (head prints A357), 2 hours treatment, read-out: A357 cell IC50
Procedure, shortened: (§2)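 In Cell Western detection of phospho-ERK1/2 (Thr202/Tyr204) over GAPDH after 2 h compound exposure (66 pM to 10 μM, 9 points, 0.25% DMSO) of A375 cells in DMEM or H1755 cells in RPMI, both with 10% FBS. Percent of control set by DMSO and 10 μM binimetinib; 4-parameter IC50.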

BCRP = BCRP (Homo sapiens (Human), UniProt Q9UNQ0); test: BCRP MDCKII permeability assay: efflux ratio; type: in vitro ADME; settings: dog
H1755 cells = test: Cellular phospho-ERK inhibition assay in H1755 cells; type: cell-based; settings: Homo sapiens, NCI-H1755, 2 hours treatment, read-out: H1755 Cell IC50
Procedure, shortened: as §2

[2] = MDR1 LLC-PK1 and BCRP MDCKII permeability assay: permeability coefficient (Papp); type: in vitro ADME
From the text: as §1

[3] = averaged IC50, TR-FRET tracer displacement, 60 min

Chain of full-length FLAG-tagged B-Raf(V600E) (P15056 whole entry V600E): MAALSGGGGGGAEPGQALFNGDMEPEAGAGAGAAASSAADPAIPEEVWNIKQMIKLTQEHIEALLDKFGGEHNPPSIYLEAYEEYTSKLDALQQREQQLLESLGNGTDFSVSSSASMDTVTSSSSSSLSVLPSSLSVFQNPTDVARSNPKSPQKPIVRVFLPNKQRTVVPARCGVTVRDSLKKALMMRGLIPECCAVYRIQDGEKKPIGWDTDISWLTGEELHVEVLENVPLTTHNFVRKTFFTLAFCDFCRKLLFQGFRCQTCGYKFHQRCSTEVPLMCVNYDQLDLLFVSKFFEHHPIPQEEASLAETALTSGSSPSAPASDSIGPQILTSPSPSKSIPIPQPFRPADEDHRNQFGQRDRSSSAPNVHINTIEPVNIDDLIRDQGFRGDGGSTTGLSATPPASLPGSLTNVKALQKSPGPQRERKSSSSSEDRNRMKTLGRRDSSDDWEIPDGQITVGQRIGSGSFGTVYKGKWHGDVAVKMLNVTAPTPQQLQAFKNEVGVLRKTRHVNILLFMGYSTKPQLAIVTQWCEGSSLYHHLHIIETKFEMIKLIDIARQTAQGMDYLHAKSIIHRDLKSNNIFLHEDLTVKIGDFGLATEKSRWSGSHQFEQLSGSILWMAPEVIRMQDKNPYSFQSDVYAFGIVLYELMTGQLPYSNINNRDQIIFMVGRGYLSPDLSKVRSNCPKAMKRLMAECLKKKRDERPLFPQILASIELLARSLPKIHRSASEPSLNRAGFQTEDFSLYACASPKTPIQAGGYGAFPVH
Chain of BCRP (Q9UNQ0 whole entry): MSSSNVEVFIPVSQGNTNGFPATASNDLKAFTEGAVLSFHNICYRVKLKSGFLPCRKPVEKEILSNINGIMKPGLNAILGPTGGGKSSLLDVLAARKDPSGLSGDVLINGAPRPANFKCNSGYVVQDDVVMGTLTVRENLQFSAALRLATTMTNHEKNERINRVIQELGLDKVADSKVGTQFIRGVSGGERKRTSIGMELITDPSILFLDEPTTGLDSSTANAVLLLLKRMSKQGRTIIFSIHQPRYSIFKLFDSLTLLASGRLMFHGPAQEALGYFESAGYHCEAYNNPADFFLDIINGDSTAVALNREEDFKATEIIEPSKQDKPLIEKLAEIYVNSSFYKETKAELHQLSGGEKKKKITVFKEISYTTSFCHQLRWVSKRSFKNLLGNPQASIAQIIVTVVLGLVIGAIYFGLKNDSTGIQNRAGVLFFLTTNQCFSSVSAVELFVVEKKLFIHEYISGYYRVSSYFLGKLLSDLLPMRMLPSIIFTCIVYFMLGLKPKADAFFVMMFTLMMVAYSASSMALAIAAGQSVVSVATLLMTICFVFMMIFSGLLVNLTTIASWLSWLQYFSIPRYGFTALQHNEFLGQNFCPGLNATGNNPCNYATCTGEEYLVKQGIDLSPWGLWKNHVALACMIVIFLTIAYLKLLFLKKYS
Chain of P-gp (MDR1) (P08183 whole entry, species assumed): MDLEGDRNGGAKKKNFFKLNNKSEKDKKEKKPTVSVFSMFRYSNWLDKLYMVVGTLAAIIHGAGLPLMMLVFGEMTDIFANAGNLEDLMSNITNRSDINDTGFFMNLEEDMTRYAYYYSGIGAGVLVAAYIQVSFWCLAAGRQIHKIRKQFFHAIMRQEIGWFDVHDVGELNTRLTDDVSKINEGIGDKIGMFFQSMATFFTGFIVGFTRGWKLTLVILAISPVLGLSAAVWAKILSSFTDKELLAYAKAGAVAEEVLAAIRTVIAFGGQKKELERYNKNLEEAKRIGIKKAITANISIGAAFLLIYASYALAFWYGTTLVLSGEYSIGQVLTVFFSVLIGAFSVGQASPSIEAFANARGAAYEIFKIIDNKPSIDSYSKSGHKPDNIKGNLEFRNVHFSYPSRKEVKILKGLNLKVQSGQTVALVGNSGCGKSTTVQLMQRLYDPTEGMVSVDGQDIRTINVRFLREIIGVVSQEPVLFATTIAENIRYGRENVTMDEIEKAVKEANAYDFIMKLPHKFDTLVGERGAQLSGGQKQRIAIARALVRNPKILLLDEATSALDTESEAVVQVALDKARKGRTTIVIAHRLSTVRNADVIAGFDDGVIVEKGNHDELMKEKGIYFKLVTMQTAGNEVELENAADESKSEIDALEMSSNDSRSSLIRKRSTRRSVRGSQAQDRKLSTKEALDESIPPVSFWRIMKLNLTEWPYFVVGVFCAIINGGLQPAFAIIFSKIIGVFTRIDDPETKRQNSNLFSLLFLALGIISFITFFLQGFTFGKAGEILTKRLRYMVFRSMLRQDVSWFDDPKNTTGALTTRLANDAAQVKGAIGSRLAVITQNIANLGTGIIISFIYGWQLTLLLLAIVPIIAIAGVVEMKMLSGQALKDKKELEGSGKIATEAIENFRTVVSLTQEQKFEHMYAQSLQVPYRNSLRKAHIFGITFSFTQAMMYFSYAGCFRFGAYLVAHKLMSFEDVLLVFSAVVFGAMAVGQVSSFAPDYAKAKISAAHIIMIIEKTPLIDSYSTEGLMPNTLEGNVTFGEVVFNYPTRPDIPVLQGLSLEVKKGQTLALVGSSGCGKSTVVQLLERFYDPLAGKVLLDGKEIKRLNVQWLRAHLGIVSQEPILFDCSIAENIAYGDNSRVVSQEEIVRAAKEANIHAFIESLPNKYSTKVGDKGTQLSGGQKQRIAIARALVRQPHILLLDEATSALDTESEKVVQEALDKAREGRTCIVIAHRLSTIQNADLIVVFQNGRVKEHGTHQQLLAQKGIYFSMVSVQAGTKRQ

SMILES: Cc1c(Nc2c(F)ccc(NS(=O)(=O)N(C)C)c2Cl)ccc2ncn(C)c(=O)c12 [Example 71, N-(2-chloro-3-((3,5-dimethyl-4-oxo-3,4-dihydroquinazolin-6-yl)amino)-4-fluorophenyl)-(N,N-dimethyl)-sulfamide]
IC50 [1, 3]: 0.301 µM | efflux ratio at 2 h, 1 µM (P-gp (MDR1)): 1.2 | IC50 (A375 cells): 0.069 µM | efflux ratio at 2 h, 1 µM (BCRP): 0.9 | IC50 (H1755 cells): 0.161 µM | Papp at 2 h, 1 µM [2]: 40 ×10⁻⁶ cm/s

SMILES: Cc1c(Nc2cc(F)cc(NS(=O)(=O)N3CC[C@@H](F)C3)c2Cl)ccc2ncn(C)c(=O)c12 [Example 151, (R)-N-(2-chloro-3-((3,5-dimethyl-4-oxo-3,4-dihydroquinazolin-6-yl)amino)-5-fluorophenyl)-3-fluoropyrrolidine-1-sulfonamide]
IC50 [1, 3]: 0.014 µM | efflux ratio at 2 h, 1 µM (P-gp (MDR1)): 1.5 | IC50 (A375 cells): 0.283 µM | efflux ratio at 2 h, 1 µM (BCRP): 1.8 | IC50 (H1755 cells): 0.538 µM | Papp at 2 h, 1 µM [2]: 28 ×10⁻⁶ cm/s

SMILES: Cc1c(Nc2c(F)ccc(NS(=O)(=O)N3CC4C(F)C4C3)c2Cl)ccc2ncn(C)c(=O)c12 (stereo not drawn) [Example 148, N-(2-chloro-3-((3,5-dimethyl-4-oxo-3,4-dihydroquinazolin-6-yl)amino)-4-fluorophenyl)-6-fluoro-3-azabicyclo[3.1.0]hexane-3-sulfonamide]
IC50 [1, 3]: 0.027 µM | efflux ratio at 2 h, 1 µM (P-gp (MDR1)): 2.4 | IC50 (A375 cells): 0.426 µM | efflux ratio at 2 h, 1 µM (BCRP): 1.8 | IC50 (H1755 cells): 0.854 µM | Papp at 2 h, 1 µM [2]: 22 ×10⁻⁶ cm/s

SMILES: Cn1cnc2ccc(Nc3c(F)ccc(NS(=O)(=O)N4CC(F)(F)C4)c3Cl)c(Cl)c2c1=O [Example 135, N-(2-chloro-3-((5-chloro-3-methyl-4-oxo-3,4-dihydroquinazolin-6-yl)amino)-4-fluorophenyl)-3,3-difluoroazetidine-1-sulfonamide]
IC50 [1, 3]: 0.003 µM | efflux ratio at 2 h, 1 µM (P-gp (MDR1)): 1.9 | IC50 (A375 cells): 0.022 µM | efflux ratio at 2 h, 1 µM (BCRP): 5.1 | IC50 (H1755 cells): 0.189 µM | Papp at 2 h, 1 µM [2]: 29 ×10⁻⁶ cm/s

SMILES: Cc1c(Nc2cc(Cl)cc(NS(=O)(=O)N3CCCC3)c2F)ccc2ncn(C)c(=O)c12 [Example 104, N-(5-chloro-3-((3,5-dimethyl-4-oxo-3,4-dihydroquinazolin-6-yl)amino)-2-fluorophenyl)pyrrolidine-1-sulfonamide]
IC50 [1, 3]: 0.005 µM | efflux ratio at 2 h, 1 µM (P-gp (MDR1)): 1.2 | IC50 (A375 cells): 0.133 µM | efflux ratio at 2 h, 1 µM (BCRP): 1.3 | IC50 (H1755 cells): 0.307 µM | Papp at 2 h, 1 µM [2]: 22 ×10⁻⁶ cm/s

SMILES: Cc1c(Nc2cc(Cl)cc(NS(=O)(=O)N3CC[C@@H](F)C3)c2F)ccc2ncn(C)c(=O)c12 [Example 103, (R)-N-(5-chloro-3-((3,5-dimethyl-4-oxo-3,4-dihydroquinazolin-6-yl)amino)-2-fluorophenyl)-3-fluoropyrrolidine-1-sulfonamide]
IC50 [1, 3]: 0.005 µM | efflux ratio at 2 h, 1 µM (P-gp (MDR1)): 3.2 | IC50 (A375 cells): 0.118 µM | efflux ratio at 2 h, 1 µM (BCRP): 3.5 | IC50 (H1755 cells): 0.365 µM | Papp at 2 h, 1 µM [2]: 25 ×10⁻⁶ cm/s

SMILES: Cc1c(Nc2cc(F)cc(NS(=O)(=O)N3CCCC3)c2F)ccc2ncn(C)c(=O)c12 [Example 154, N-(3-((3,5-dimethyl-4-oxo-3,4-dihydroquinazolin-6-yl)amino)-2,5-difluorophenyl)pyrrolidine-1-sulfonamide]
IC50 [1, 3]: 0.028 µM | efflux ratio at 2 h, 1 µM (P-gp (MDR1)): 1.4 | IC50 (A375 cells): 0.404 µM | efflux ratio at 2 h, 1 µM (BCRP): 1.3 | IC50 (H1755 cells): 0.879 µM | Papp at 2 h, 1 µM [2]: 26 ×10⁻⁶ cm/s

The next compounds have a lower IC50 (A375 cells) than those just listed; values first:

IC50 [1, 3]: 0.003 µM | efflux ratio at 2 h, 1 µM (P-gp (MDR1)): 3.1 | IC50 (A375 cells): 0.006 µM | efflux ratio at 2 h, 1 µM (BCRP): 3.1 | IC50 (H1755 cells): 0.026 µM | Papp at 2 h, 1 µM [2]: 33 ×10⁻⁶ cm/s
SMILES: Cn1cnc2ccc(Nc3c(F)ccc(NS(=O)(=O)N4CC(COC(F)F)C4)c3Cl)c(Cl)c2c1=O [Example 138, N-(2-chloro-3-((5-chloro-3-methyl-4-oxo-3,4-dihydroquinazolin-6-yl)amino)-4-fluorophenyl)-3-((difluoromethoxy)methyl)azetidine-1-sulfonamide trifluoroacetate]

IC50 [1]: 0.001 µM | efflux ratio at 2 h, 1 µM (P-gp (MDR1)): 1.7 | IC50 (A375 cells): 0.007 µM | efflux ratio at 2 h, 1 µM (BCRP): 3.6 | IC50 (H1755 cells): 0.084 µM | Papp at 2 h, 1 µM [2]: 39 ×10⁻⁶ cm/s
SMILES: Cn1cnc2ccc(Oc3c(F)ccc(NS(=O)(=O)N4CCC(F)(F)C4)c3Cl)c(F)c2c1=O [Example 63, N-(2-chloro-4-fluoro-3-((5-fluoro-3-methyl-4-oxo-3,4-dihydroquinazolin-6-yl)oxy)phenyl)-3,3-difluoropyrrolidine-1-sulfonamide]

IC50 [1, 3]: 0.005 µM | efflux ratio at 2 h, 1 µM (P-gp (MDR1)): 2.7 | IC50 (A375 cells): 0.005 µM | efflux ratio at 2 h, 1 µM (BCRP): 4.4 | IC50 (H1755 cells): 0.027 µM | Papp at 2 h, 1 µM [2]: 39 ×10⁻⁶ cm/s
SMILES: Cn1cnc2ccc(Nc3c(F)ccc(NS(=O)(=O)N4CC[C@H](F)C4)c3Cl)c(F)c2c1=O [Example 27, (S)-N-(2-chloro-4-fluoro-3-((5-fluoro-3-methyl-4-oxo-3,4-dihydroquinazolin-6-yl)amino)phenyl)-3-fluoropyrrolidine-1-sulfonamide trifluoroacetate]

IC50 [1, 3]: 0.03 µM | efflux ratio at 2 h, 1 µM (P-gp (MDR1)): 1.3 | IC50 (A375 cells): 0.016 µM | efflux ratio at 2 h, 1 µM (BCRP): 1.5 | IC50 (H1755 cells): 0.061 µM | Papp at 2 h, 1 µM [2]: 33 ×10⁻⁶ cm/s
SMILES: CN(C)S(=O)(=O)Nc1ccc(F)c(Nc2ccc3ncn(C)c(=O)c3c2Cl)c1Cl [Example 3, N-(2-chloro-3-((5-chloro-3-methyl-4-oxo-3,4-dihydroquinazolin-6-yl)amino)-4-fluorophenyl)-(N,N-dimethyl)-sulfamide]

IC50 [1, 3]: 0.006 µM | efflux ratio at 2 h, 1 µM (P-gp (MDR1)): 3 | IC50 (A375 cells): 0.007 µM | efflux ratio at 2 h, 1 µM (BCRP): 18.3 | IC50 (H1755 cells): 0.089 µM | Papp at 2 h, 1 µM [2]: 24 ×10⁻⁶ cm/s
SMILES: Cn1cnc2ccc(Nc3c(F)ccc(NS(=O)(=O)N4CC(F)(F)C4)c3Cl)c(F)c2c1=O [Example 136, N-(2-chloro-4-fluoro-3-((5-fluoro-3-methyl-4-oxo-3,4-dihydroquinazolin-6-yl)amino)phenyl)-3,3-difluoroazetidine-1-sulfonamide]

IC50 [1, 3]: 0.017 µM | efflux ratio at 2 h, 1 µM (P-gp (MDR1)): 1.1 | IC50 (A375 cells): 0.021 µM | efflux ratio at 2 h, 1 µM (BCRP): 1.3 | IC50 (H1755 cells): 10 µM | Papp at 2 h, 1 µM [2]: 43 ×10⁻⁶ cm/s
SMILES: Cc1c(Nc2c(F)ccc(NS(=O)(=O)N3CCC3)c2Cl)ccc2ncn(C)c(=O)c12 [Example 124, N-(2-chloro-3-((3,5-dimethyl-4-oxo-3,4-dihydroquinazolin-6-yl)amino)-4-fluorophenyl)azetidine-1-sulfonamide trifluoroacetate]

IC50 [1, 3]: 0.006 µM | efflux ratio at 2 h, 1 µM (P-gp (MDR1)): 6.8 | IC50 (A375 cells): 0.002 µM | efflux ratio at 2 h, 1 µM (BCRP): 13.4 | IC50 (H1755 cells): 0.016 µM | Papp at 2 h, 1 µM [2]: 26 ×10⁻⁶ cm/s
SMILES: CO[C@@H]1CN(S(=O)(=O)Nc2ccc(F)c(Nc3ccc4ncn(C)c(=O)c4c3F)c2Cl)C[C@@H]1F (relative stereo) [Example 15, cis-N-(2-chloro-4-fluoro-3-((5-fluoro-3-methyl-4-oxo-3,4-dihydroquinazolin-6-yl)amino)phenyl)-3-fluoro-4-methoxypyrrolidine-1-sulfonamide]

IC50 [1, 3]: 0.01 µM | efflux ratio at 2 h, 1 µM (P-gp (MDR1)): 2.5 | IC50 (A375 cells): 0.012 µM | efflux ratio at 2 h, 1 µM (BCRP): 1.3 | IC50 (H1755 cells): 0.026 µM | Papp at 2 h, 1 µM [2]: 23 ×10⁻⁶ cm/s
SMILES: CO[C@@H]1CCN(S(=O)(=O)Nc2ccc(F)c(Nc3ccc4ncn(C)c(=O)c4c3Br)c2Cl)C1 [Example 8, (R)-N-(3-((5-bromo-3-methyl-4-oxo-3,4-dihydroquinazolin-6-yl)amino)-2-chloro-4-fluorophenyl)-3-methoxypyrrolidine-1-sulfonamide trifluoroacetate]
